Measurements as given in patent publication US9079821B2, “Quinone based nitric oxide donating compounds” (NICOX S.A., priority 2011, dated 2015).

Columns and labels:
[1] = test system: isolated aortas from rats; experiment: Ex vivo tolerance evaluation (vascular response of isolated aortas from treated rats); type: in vivo, rat; details: for EC50 at 100 mg/kg: Rattus norvegicus, vascular response to Compound (6), 3 h after last administration
Description: Thoracic aortas from male New Zealand rabbits or male Sprague Dawley (SD) were used. The aortas were placed immediately in Krebs-HEPES buffer (pH 7.4; composition mM: NaCl 130.0, KCl 3.7, NaHCO3 14.9, KH2PO4 1.2, MgSO4.7H2O 1.2, Glucose 11.0, HEPES 10.0, CaCl2.2H2O 1.6). Connective tissue was removed and aortas were cut into ring segments (4-5 mm in length). Each ring was placed in a 5 mL tissue bath filled with Krebs-HEPES buffer (37° C.) aerated with 95% O2 and 5% CO2 and was attached to a force transducer (Grass FT03), connected to a BIOPAC MP150 System for measurement of the isometric tension. Preparations were allowed to equilibrate for 1 h at a resting tension of 2 g for rabbit aortas and 1 g for rat aortas with changes of the buffer every 15 min. Then the rings were stimulated by exposure to 90 mM KCl (3 times) with intervening washings.
Rat aorta. After equilibration, rat aortas were precontracted with KCl (90 mM) and, when the contraction was stable, a cumulative concentration-response curve to acetylcholine (ACh, 0.01-100 μM) was added. After washout, the rings were precontracted again with KCl (90 mM). When a steady-state level of contraction was obtained, a cumulative concentration-response curve to the tested compounds (0.01-100 μM) was obtained.
Data analysis. Results are given as mean±SEM. Vascular responses are expressed as percentage relaxation and plotted vs concentration. The sensitivity of isolated aorta to different vasodilators is expressed as the concentration that elicited 50% of the maximal responses (EC50). Responses are quantified in terms of EC50 and Emax (maximal vasodilating effect) values, obtained from the concentration-response curve by nonlinear curve fitting, using GraphPad software.
Tolerance to nitrate was further investigated assessing the vascular effects of Compound (6) following repeated treatment compared with 5-ISMN. The vascular response to the compound itself was assessed on isolated aortas from rats orally treated for 5 days with Compound (6) (100 mg/kg). The vascular response was performed as described in Example 6.
Vascular responses were performed 1 h (ISMN) or 3 h (Compound (6)) after the last administration, the concentrations of tested compound that elicited the 50% of the maximal responses (EC50) are shown in Table 4.

mdx mice = experiment: Mouse model of Duchenne Muscle Distrophy (whole body tension in mdx mice); type: in vivo; details: for WBT5: average of top 5 FPTs divided by body weight; for WBT10: average of top 10 FPTs divided by body weight
Description: The effects of the compound (6) on muscle function were assessed in mdx mice, which are genetically and biochemically homologous to human DMD. Animals of 4 weeks of age were treated for 3 months with the compound (6) at two different doses (30 and 100 mg/kg), which was incorporated into the diet. Control mdx and wild-type mice were fed the same diet without any drug. To determine if treatment with the compound would ameliorate muscle function in mdx mice, we evaluated the whole body tension which is a measure of the total muscle force. Indeed, this assay, well described in the Treat-NMD standard procedures for the preclinical studies in DMD, is used to determine the ability of mice to exert tension in a pulling maneuver that is elicited by stroking the tail. It is thought to reflect the maximal acute phasic force of the mouse can achieve to escape a potentially harmful event. Briefly, each mouse was placed at the entry of a polyvinyl chloride tube that had been lined interiorly with an aluminum screen, and the tail of the mouse was connected to a tension transducer. Forward pulling movements were elicited by a standardized stroke of the tail with serrated forceps and the corresponding forward pulling tensions (FPTs) were recorded using a Biopac recording system. Between 15 and 20 FPTs were generally recorded during each session. The whole body tension 5 (WBT5) and WBT10 were obtained by dividing the average of the top 5 or top 10 FPTs, respectively, by the body weight.
Table.1 Whole Body Tension (WBT) measured in wild-type and mdx control mice and in mdx mice treated with two different doses of NCX 1443 (30 and 100 mg/kg) incorporated in the diet. Data are presented as mean±standard deviation. For each group, n=8-10 mice. *p<0.05 vs mdx vehicle, ^###p<0.001 vs wild-type (wt) mice, 1-way ANOVA followed by Tuckey post-hoc test.

[2] = test system: rat L-NAME-induced hypertension; experiment: In vivo tolerance evaluation (L-NAME-induced hypertension after 5-day oral treatment); details: for Delta vs basal (mmHg): peak effect 3 hours
Description: Fasted male SD rats (250-300 g, n=3-5 per group), obtained from Harlan Italy (Correzzana, Milan, Italy) were orally treated with tested compounds or vehicle (DMSO:Methocel 1% 2/98 v/v) in a total volume of 4 ml/kg by gavage. At each time point (1, 3, 6 and 24 h) animals were deeply anesthetized with Zoletil® 100 (3 mg/kg), given intramuscularly. Thereafter, a pressure catheter (Samba Sensors, Harvard Apparatus, UK) was introduced into the common carotid artery for central blood pressure measurement. Pressure transducer was connected to a personal computer, in order to allow real time monitor of the pressure tracing. After 10 minutes of basal recording, L-NAME (50 mg/kg) was administered intraperitoneally and the effect on SBP monitored. When the SBP stabilized (5 minutes without variations) the recording was stopped. To further confirm that functional activity was NO-dependent, at each time point blood ^15N-nitrite levels were measured following the procedure described in Example 12.
To investigate whether the compound (6) induced nitrate tolerance, as observed for most of the drugs belonging to the nitrate class, the L-NAME-induced hypertension rat model described in Example 7 was performed following a repeated oral treatment. Rats were orally treated for 5 days with vehicle, compound (6) (100 mg/kg) or 5-ISMN (30 mg/kg). […] The experiments were performed at the peak effect (1 hour for 5-ISMN and 3 hours for Compound (6)), results are reported in Table 3.

[3] = compound (6) 100 mg/kg oral, 5 days
[4] = 30 mg/kg/day in the diet for 3 months
[5] = 100 mg/kg/day in the diet for 3 months

SMILES: COC1=C(OC)C(=O)C(CCCCCCCCCCO[N+](=O)[O-])=C(C)C1=O [Compound (6), 10-(4,5-dimethoxy-2-methyl-3,6-dioxocyclohexa-1,4-dienyl)decyl nitrate]
- EC50 at 100 mg/kg ([1]; acute, aortas of rats given Compound (6) 100 mg/kg): 110 ± 20 nM
- EC50 at 100 mg/kg ([1]; repeated (5 days oral) Compound (6) 100 mg/kg): 180 ± 20 nM
- vascular response of aortas from treated animals vs vehicle arteries, in words [1, 3]: showed the same sensitivity to Compound (6) as those arteries of animals treated only with vehicle
- WBT5 (mdx mice; [4]): 3.6 ± 0.7^###
- WBT10 (mdx mice; [4]): 3.0 ± 0.7^###
- WBT5 (mdx mice; [5]): 4.1 ± 0.8^###*
- WBT10 (mdx mice; [5]): 3.4 ± 0.6^###*
- effect on muscle function, in words (mdx mice; 30 and 100 mg/kg in the diet for 3 months): showed a dose-response trend in improving muscle function reaching a significant effect at the dose of 100 mg/kg
- Delta vs basal (mmHg) ([2]; acute treatment, Comp. (6) 100 mg/kg oral): 14 ± 3.8 mmHg
- efficacy against L-NAME-induced hypertension after 5-day treatment (nitrate tolerance), in words [2, 3]: counteracted L-NAME-induced hypertension after 5-day oral treatment
- Delta vs basal (mmHg) ([2]; repeated (5 days) oral treatment, Comp. (6) 100 mg/kg): 27.8 ± 4 mmHg
